Results from patent US20250360210A1, “IMMUNOEFFECTOR CELLS DERIVED FROM INDUCED PLURIPOTENT STEM CELLS GENETICALLY ENGINEERED WITH MEMBRANE BOUND IL12 AND USES THEREOF” (Century Therapeutics, Inc., priority 2022, published 2025).

Biological target: T1, ADAM17 (Homo sapiens, UniProt P78536)
T1 construct: endogenous in cells; host or cells: iPSCs engineered with p1514 (ADAM17-cleavable membrane-tethered IL12 transgene at the AAVS1 locus)
Assay: Flow cytometry for IL12 on the surface of p1514-engineered iPSCs after incubation with TAPI-1
Assay type: cell-based
Conditions: concentrations lower than 50 uM
Experimental: To confirm expression in cells engineered with the ADAM17 cleavable membrane tethered IL12 (p1514; FIG. 1B), the iPSCs were incubated with different concentrations of the ADAM17 inhibitor TAPI-1 and then analyzed by flow cytometry for IL12 detection on the surface of the engineered iPSCs.
Lower concentrations had no effect on cell health or tmIL12 detection)

T1 sequence (P78536 215-824): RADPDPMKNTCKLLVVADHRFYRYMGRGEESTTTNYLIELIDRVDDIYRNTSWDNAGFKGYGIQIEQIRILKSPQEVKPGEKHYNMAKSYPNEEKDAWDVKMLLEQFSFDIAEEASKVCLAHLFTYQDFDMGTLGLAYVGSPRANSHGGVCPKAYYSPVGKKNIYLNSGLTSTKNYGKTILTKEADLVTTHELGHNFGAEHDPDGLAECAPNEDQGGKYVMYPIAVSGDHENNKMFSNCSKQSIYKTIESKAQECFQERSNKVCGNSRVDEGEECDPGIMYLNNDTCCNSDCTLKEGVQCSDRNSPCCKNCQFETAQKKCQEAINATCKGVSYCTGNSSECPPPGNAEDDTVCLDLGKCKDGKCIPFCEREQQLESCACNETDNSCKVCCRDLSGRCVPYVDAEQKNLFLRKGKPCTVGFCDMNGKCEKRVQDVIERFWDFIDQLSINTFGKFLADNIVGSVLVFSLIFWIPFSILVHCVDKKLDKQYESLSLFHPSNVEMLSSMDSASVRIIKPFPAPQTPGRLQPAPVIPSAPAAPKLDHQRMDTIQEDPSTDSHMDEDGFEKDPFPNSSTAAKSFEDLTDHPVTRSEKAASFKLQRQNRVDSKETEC

- tmIL12 detection on surface of engineered iPSCs: no effect
- cell health (engineered iPSCs): no effect
Structure (SMILES): CC(C)C[C@H](CC(=O)NO)C(=O)N[C@@H](Cc1ccc2ccccc2c1)C(=O)N[C@@H](C)C(=O)NCCN [TAPI-1]
